Assays:
[1] = molecular target: T1, EHMT1 (Homo sapiens, UniProt Q9H9B1); experiment: EHMT1 enzyme assay on peptide substrate (EHMT1 PEP); assay type: biochemical; settings: Table VI; read-out: EHMT1 PEP IC50
T1 sequence (Q9H9B1 1-1298): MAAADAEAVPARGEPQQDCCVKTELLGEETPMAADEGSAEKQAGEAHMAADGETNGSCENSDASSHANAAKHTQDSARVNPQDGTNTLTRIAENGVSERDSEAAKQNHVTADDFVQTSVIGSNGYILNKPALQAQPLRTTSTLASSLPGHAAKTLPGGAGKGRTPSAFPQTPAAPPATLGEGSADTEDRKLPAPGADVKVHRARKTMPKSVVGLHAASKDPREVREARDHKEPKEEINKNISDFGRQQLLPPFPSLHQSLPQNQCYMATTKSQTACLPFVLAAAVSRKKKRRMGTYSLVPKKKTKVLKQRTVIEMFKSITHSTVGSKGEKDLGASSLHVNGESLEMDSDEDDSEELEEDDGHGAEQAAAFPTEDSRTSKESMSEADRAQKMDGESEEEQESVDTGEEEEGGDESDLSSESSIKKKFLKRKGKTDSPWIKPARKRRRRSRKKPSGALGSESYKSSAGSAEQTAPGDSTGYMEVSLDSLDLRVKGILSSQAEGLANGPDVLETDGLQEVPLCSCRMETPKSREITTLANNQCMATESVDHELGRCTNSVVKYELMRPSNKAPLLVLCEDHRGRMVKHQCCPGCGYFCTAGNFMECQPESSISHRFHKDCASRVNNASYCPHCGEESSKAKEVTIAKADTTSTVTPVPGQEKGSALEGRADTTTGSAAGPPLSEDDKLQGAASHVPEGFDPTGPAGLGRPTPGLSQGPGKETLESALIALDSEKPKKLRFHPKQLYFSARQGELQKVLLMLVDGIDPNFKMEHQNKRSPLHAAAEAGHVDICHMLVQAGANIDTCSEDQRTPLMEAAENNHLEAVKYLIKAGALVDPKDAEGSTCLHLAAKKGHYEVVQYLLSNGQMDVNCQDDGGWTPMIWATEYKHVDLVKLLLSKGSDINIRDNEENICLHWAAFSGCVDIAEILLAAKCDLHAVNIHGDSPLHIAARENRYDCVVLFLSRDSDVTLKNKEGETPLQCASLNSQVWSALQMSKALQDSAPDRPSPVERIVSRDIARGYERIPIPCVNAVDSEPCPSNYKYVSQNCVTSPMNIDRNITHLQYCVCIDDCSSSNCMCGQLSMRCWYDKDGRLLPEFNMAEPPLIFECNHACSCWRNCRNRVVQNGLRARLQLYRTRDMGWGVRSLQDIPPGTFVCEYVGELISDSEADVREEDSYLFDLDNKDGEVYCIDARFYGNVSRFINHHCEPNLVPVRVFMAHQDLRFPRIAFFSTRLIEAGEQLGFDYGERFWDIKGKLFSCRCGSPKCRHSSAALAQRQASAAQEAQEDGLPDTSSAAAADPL

[2] = molecular target: T2, human EHMT2 913-1193 (Homo sapiens, UniProt Q96KQ7); experiment: EHMT2 enzyme assay on histone peptide substrate (EHMT2 PEP); assay type: biochemical; settings: Table VI; read-out: EHMT2 PEP IC50
T2 construct: recombinant purified human EHMT2 913-1193, Viva; purchased Viva
T2 sequence (Q96KQ7 913-1193): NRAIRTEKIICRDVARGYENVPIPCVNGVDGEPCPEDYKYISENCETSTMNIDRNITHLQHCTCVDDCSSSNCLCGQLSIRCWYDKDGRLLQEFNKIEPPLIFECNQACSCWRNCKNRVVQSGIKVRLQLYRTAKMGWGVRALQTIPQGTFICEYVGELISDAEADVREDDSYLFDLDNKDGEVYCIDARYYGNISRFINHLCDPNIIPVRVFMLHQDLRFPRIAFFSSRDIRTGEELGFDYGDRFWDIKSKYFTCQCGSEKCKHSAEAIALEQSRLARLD
Outline: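 Radiometric methyltransferase read-out: ^3H-methyl transfer from ^3H-SAM onto biotinylated histone peptide, captured on streptavidin Flashplates after 60 min reaction at room temperature. Enzyme 0.031 nM, preincubated 30 min with inhibitor; buffer 20 mM Bicine pH 7.5 with 1 mM TCEP; top compound concentration 50 μM final, 2% DMSO.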

Row | Structure (SMILES) | IC50 [1] [nM] | IC50 [2] [nM]
1 | CNc1cc(C)nc(Nc2ccc(OC)c(OCC(O)CN3CCCC3)c2)n1 (stereo in doubt) [Compound 906, (2S)-1-(2-methoxy-5-[[4-methyl-6-(methylamino)pyrimidin-2-yl]amino]phenoxy)-3-(pyrrolidin-1-yl)propan-2-ol] | < 100 | < 100
2 | COc1cnc(Nc2cccc3[nH]nnc23)cc1OCCCN1CCCC1 [Compound 619] | > 10000 | > 10000
3 | CCN1CC(COc2cc(Nc3cccn4cnnc34)ncc2OC)C1 [Compound 620] | > 10000 | > 10000
4 | CNc1cc(C)nc(Nc2c[nH]c(=O)c(OCCCN3CCCC3)c2)n1 [Compound 621] | 1000 to 10000 | > 10000
5 | CNc1cc(C)nc(Nc2cc(OCCCN3CCCC3)c3nncn3c2)n1 [Compound 622] | 1000 to 10000 | 1000 to 10000
6 | CNc1cc(C)nc(Nc2cc(OCCCN3CCCC3)c3ncnn3c2)n1 [Compound 623] | 1000 to 10000 | 1000 to 10000
7 | CNc1cc(C)nc(Nc2cc(OCCCN3CCCC3)c3[nH]nnc3c2)n1 [Compound 624] | < 100 | 100 to 1000
8 | COc1cc2c(C3CCN(C)CC3)cc(N3CCCC3)nc2cc1OCCCN1CCCC1 [Compound 625] | < 100 | < 100
9 | COc1cc2c(C3CCN([C@H]4CCOC4)CC3)cc(C)nc2cc1OCCCN1CCCC1 [Compound 864] | < 100 | < 100
10 | CCNc1cc(C2CCOCC2)c2cc(OC)c(OCCCN3CCCC3)cc2n1 [Compound 865] | < 100 | < 100
11 | CNc1cc(C2CCN([C@@H]3CCOC3)CC2)c2cc(OC)c(OCCCN3CCCC3)cc2n1 [Compound 866] | < 100 | < 100
12 | CNc1cc(C2CCN([C@H]3CCOC3)CC2)c2cc(OC)c(OCCCN3CCCC3)cc2n1 [Compound 867] | < 100 | < 100
13 | COc1ccc(Nc2nc(C)cc(C3CCOCC3)n2)cc1OCCCN1CCCC1 [Compound 870] | > 10000 | > 10000
14 | CNc1cc(C)nc(Nc2ccc(OC)c(C(=O)NCc3ccccc3)c2)n1 [Compound 871] | > 10000 | > 10000
15 | CNc1cc(C)nc(Nc2ccc(OC)c(C(=O)NC3CCN(C)CC3)c2)n1 [Compound 873] | > 10000 | > 10000
16 | CNc1cc(C)nc(Nc2ccc(CNC(=O)c3ccccc3)c(OC)c2)n1 [Compound 876] | > 10000 | > 10000
17 | CNc1cc(C)nc(Nc2ccc(C(=O)NCc3ccccc3)c(OC)c2)n1 [Compound 877] | > 10000 | > 10000
18 | CNc1cc(C)nc(Nc2cnc(OC)c(OC[C@@H](O)CN3CCCC3)c2)n1 [Compound 881] | 100 to 1000 | 100 to 1000
19 | CNc1cc(C)nc(Nc2cnc(OC)c(OC[C@H](O)CN3CCCC3)c2)n1 [Compound 882] | 100 to 1000 | 100 to 1000
20 | COc1ncc(Nc2nc(C)cc(NCC3COC3)n2)cc1OC[C@@H](O)CN1CCCC1 [Compound 883] | > 10000 | > 10000
21 | COc1ncc(Nc2nc(C)cc(NCC3COC3)n2)cc1OC[C@H](O)CN1CCCC1 [Compound 884] | > 10000 | > 10000
22 | CNc1cc(C)nc(Nc2cc(OC[C@@H](O)CN3CCCC3)c(OC)cn2)n1 [Compound 885] | 1000 to 10000 | 1000 to 10000
23 | CNc1cc(C)nc(Nc2cc(OC[C@H](O)CN3CCCC3)c(OC)cn2)n1 [Compound 886] | 1000 to 10000 | 1000 to 10000
24 | CNC(=O)CCNc1cc(C)nc(Nc2cnc(OC)c(OCCCN3CCCC3)c2)n1 [Compound 887] | 100 to 1000 | 100 to 1000
25 | CNC(=O)N1CC(CNc2cc(C)nc(Nc3cnc(OC)c(OCCCN4CCCC4)c3)n2)C1 [Compound 888] | 100 to 1000 | 100 to 1000
26 | CNc1cc(C)nc(Nc2ccc(OC)c(OCCCc3nc(Cl)c[nH]3)c2)n1 [Compound 890] | > 10000 | > 10000

Row | Structure (SMILES) | IC50 [1] [nM] | IC50 [2] [nM]
27 | CNc1cc(C)nc(Nc2ccc(OC)c(OCCCc3nc(Cl)cn3C)c2)n1 [Compound 891] | > 10000 | > 10000
28 | CNS(=O)(=O)CCNc1cc(C)nc(Nc2ccc(OC)c(OCCCN3CCCC3)c2)n1 [Compound 892] | < 100 | < 100
29 | COc1ccc(Nc2nc(C)cc(NCCS(=O)(=O)N(C)C)n2)cc1OCCCN1CCCC1 [Compound 893] | < 100 | 100 to 1000
30 | COc1cnc(Nc2cc(NCC3COC3)cnn2)cc1OCCCN1CCCC1 [Compound 894] | 100 to 1000 | 100 to 1000
31 | COc1cc2cc(C#N)c(C)nc2cc1OCCCN1CCCC1 [Compound 895] | > 10000 | > 10000
32 | COc1cc2cc(F)c(C)nc2cc1OCCCN1CCCC1 [Compound 896] | > 10000 | > 10000
33 | CNc1nc2cc(OCCCN3CCCC3)c(OC)cc2cc1F [Compound 897] | 1000 to 10000 | > 10000
34 | CNC(=O)C1CCN(c2cc3nc(NC)cc(C)c3cc2OC)C1 (centres unmarked) [Compound 900] | > 10000 | > 10000
35 | CNc1cc(C2CCOCC2)c2cc(OC)c(OCCCN3CC(O)C3)cc2n1 [Compound 902] | < 100 | < 100
36 | CNc1nc2cc(OCCCN3CCCC3)c(OC)cc2cc1Cl [Compound 903] | 100 to 1000 | 1000 to 10000
37 | CNc1cc(C)nc(Nc2ccc(OC)c(C#CCN3CCOCC3)c2)n1 [Compound 904] | 1000 to 10000 | > 10000
38 | CNc1cc(C)nc(Nc2ccc(OC)c(OC[C@@H](O)CN3CCCC3)c2)n1 [Compound 905] | 100 to 1000 | 100 to 1000
39 | CNc1ccnc(Nc2ccc(OC)c(OC[C@@H](O)CN3CCC3)c2)n1 [Compound 907] | 100 to 1000 | 1000 to 10000
40 | CNc1ccnc(Nc2ccc(OC)c(OC[C@H](O)CN3CCC3)c2)n1 [Compound 908] | < 100 | < 100
41 | CNc1ccnc(Nc2cnc(OC)c(OC[C@@H]3CCN(C)C3)c2)n1 [Compound 912] | < 100 | 100 to 1000
42 | CNc1ccnc(Nc2cnc(OC)c(OCCCN3CCC3)c2)n1 [Compound 914] | < 100 | 100 to 1000
43 | CNCCCOc1cc(Nc2nccc(NC)n2)ccc1OC [Compound 916] | < 100 | 100 to 1000
44 | CNCCCOc1cc(Nc2nccc(NC)n2)cnc1OC [Compound 917] | 100 to 1000 | 1000 to 10000
45 | CNC[C@@H](O)COc1cc(Nc2nccc(NC)n2)cnc1OC [Compound 918] | 100 to 1000 | 1000 to 10000
46 | CNc1ccnc(Nc2ccc(OC)c(OC[C@@H](CN3CCCC3)OC)c2)n1 [Compound 919] | 1000 to 10000 | 1000 to 10000
47 | CNc1ccnc(Nc2ccc(OC)c(OC[C@H](CN3CCCC3)OC)c2)n1 [Compound 920] | 100 to 1000 | 100 to 1000
48 | CNC[C@H](COc1cc(Nc2nccc(NC)n2)ccc1OC)OC [Compound 921] | > 10000 | > 10000
49 | CNC[C@@H](COc1cc(Nc2nccc(NC)n2)ccc1OC)OC [Compound 922] | 1000 to 10000 | 1000 to 10000
50 | CCN1CC[C@@H](COc2cc(Nc3nccc(NC)n3)ccc2OC)C1 [Compound 927] | < 100 | 100 to 1000
51 | CNc1ccnc(Nc2ccc(OC)c(OC[C@@H]3CCN(C4CC4)C3)c2)n1 [Compound 928] | < 100 | 100 to 1000
52 | CNc1ccnc(Nc2ccc(OC)c(OC[C@H]3CN(C)CCO3)c2)n1 [Compound 931] | > 10000 | > 10000

Source: US20210198277A1, “AMINE-SUBSTITUTED ARYL OR HETEROARYL COMPOUNDS” (Epizyme, Inc., priority 2016, published 2021)
